The values that follow are results of earlier work, collected in patent publication EP2408442B1, “PHARMACEUTICAL COMPOSITION PRESENTING ANTI-INFLAMMATORY PROPERTIES” (Bioxtract S.A., priority 2009, dated 2010).

The conditions of this data set: 42 or 84 mg of oral not formulated curcumin, including metabolised forms (glucuronides or sulfates).

Turning to `COc1cc(C=CC(=O)CC(=O)C=Cc2ccc(O)c(OC)c2)ccc1O` [curcumin, 1,7-bis(4-hydroxyl-3-methoxyphenyl)-1,6-heptadiene-3,5-dione], the oral bioavailability result is recorded as “not bioavailable at all”.
